This is an account of results in patent US20160136118A1, “COMPOSITIONS AND METHODS FOR THE TREATMENT OF A COMMON COLD AND SYMPTOMS THEREOF” (3E THERAPEUTICS CORPORATION, priority 2007, published 2016).

In assay [1] the test system is human patients exposed to cat allergen. Briefly: Single-blind study, exposure to cat allergen after contrast media pretreatment (Example 11). Type of assay: in vivo. Particulars: for Reactions on exposure to cat allergen: allergen diluted 1:10. The method, then:
A single-blind study was conducted using three human patients. The patients were exposed to cat allergen at three different dilutions, 1:1,000, 1:100, and 1:10. […] Exposure to the 1:100 dilution of allergen caused a mild reaction in all of the patients. Exposure to the 1:10 dilution of allergen caused moderate reactions in all of the patients, with one patient in particular requiring some treatment for the reaction.
Patients were then pre-treated with VISIPAQUE®320 (iodixanol).
Patients were pre-treated with Iotrolan 280.
Table 1 summarizes the results and symptoms after exposure to a 1:10 dilution of cat allergen both with and without pretreatment with VISIPAQUE®320 or Iotrolan 280.

For assay [2] the test system is unchanged. Briefly: Single-blind study, cat allergen at three dilutions with or without pretreatment, symptoms per patient (Example 12). Particulars: for Itch / Sneezes / Congestion / Drip: pretreatment. Type of assay: in vivo. The arrangement: Drip / Congestion / Itch: scale not given here. The method, then:
A single-blind study was conducted using three human patients. Patients were pre-treated with VISIPAQUE®320 (Iodixanol) or not treated with contrast media. The patients were exposed to cat allergen at three different dilutions, 1:1000, 1:100, and 1:10. Patient symptoms of itch, drip, congestion, and sneeze were assessed.
Tables 2-4 show the results and symptoms after exposure to the indicated dilution of cat allergen both with and without pretreatment with VISIPAQUE®320.
In a similar study, patients were treated with Iotrolan 280 prior to exposure to 1:10, 1:100, or 1:1000 dilutions of cat allergen.

Assay [3] concerns histamine, dust allergen and grass allergen injected into patient's arm. Briefly: Skin reaction to injected histamine, dust allergen and grass allergen after topical pretreatment of the arm (Example 13). It counts as in vivo, human. The method, then:
FIG. 1 is a photograph showing the response of the patient to 6 injections. Three substances were each injected twice at two different locations, for a total of 6 injections. Each substance was injected at one location that had been pretreated with CHOLOGRAFIN® meglumine and at a second location that had not been pretreated. CHOLOGRAFIN® meglumine, which comprises 80% Iodipamide in emollient, was applied topically to part of a patient's arm. Forty five minutes after application of the CHOLOGRAFIN® meglumine, each of the three substances was injected into the two different locations on the arm, one pretreated and one that was not pretreated. The three substances were histamine, dust allergen, and grass allergen. Referring to FIG. 1, the two histamine injections went into the upper level of the arm, the two dust allergen injections went into the middle level of the arm, and the two grass allergen injections went into the lower level of the arm. FIG. 1 is a photograph showing the resulting reactions taken 2.5 hours after the injections. […] The reactions of upper, middle and lower levels of the arm on the untreated sides were rated with scores of 3+, 4+, and 4+, respectively. The reactions of the upper, middle and lower levels of the arm on the pretreated sides were rated with scores of 1+, 2+, and 2+, respectively.

[4] abbreviates: 1:10 dilution of cat allergen, pretreatment, three human patients.
[5] abbreviates: Patient 1, 1:10 concentration cat allergen.
Setting [6] is: Patient 1, 1:100 concentration cat allergen.
[7] abbreviates: Patient 1, 1:1000 concentration cat allergen.
The mark [8] stands for this setting: Patient 2, 1:10 concentration cat allergen.
Where [9] appears, read: Patient 2, 1:100 concentration cat allergen.
The mark [10] stands for this setting: Patient 2, 1:1000 concentration cat allergen.
[11] abbreviates: Patient 3, 1:10 concentration cat allergen.
Where [12] appears, read: Patient 3, 1:100 concentration cat allergen.
The mark [13] stands for this setting: Patient 3, 1:1000 concentration cat allergen.

In the case of `CN(C(=O)CC(=O)N(C)c1c(I)c(C(=O)NC(CO)C(O)CO)c(I)c(C(=O)NC(CO)C(O)CO)c1I)c1c(I)c(C(=O)NC(CO)C(O)CO)c(I)c(C(=O)NC(CO)C(O)CO)c1I` (centres unmarked) [Iotrolan 280, Iotrolan], the “Reaction to the cat allergen compared to the reaction without pretreatment” value in assay [1] (1:10 dilution of cat allergen) is “decreased reaction”. Moreover, in assay [1] (setting [4]), the Itch is reported as 0 and the Sneezes is recorded as 2×. In addition, the “Reactions on exposure to cat allergen” value in assay [1] (after pretreatment) is recorded as “mild reactions”.
On to `CC(=O)N(CC(O)CN(C(C)=O)c1c(I)c(C(=O)NCC(O)CO)c(I)c(C(=O)NCC(O)CO)c1I)c1c(I)c(C(=O)NCC(O)CO)c(I)c(C(=O)NCC(O)CO)c1I` (centres unmarked) [Visipaque 320, iodixanol], for which the “Reaction to the cat allergen compared to the reaction without pretreatment” value in assay [1] (1:10 dilution of cat allergen) is “decreased reaction”. The Sneezes in assay [1] (setting [4]) turned out to be 2×; in assay [2] (setting [5]), 2×; in assay [2] (setting [6]) it was 0 ×; in assay [2] (setting [7]), 0 ×; in assay [2] (setting [8]), 0 ×; in assay [2] (setting [9]) it was 0 ×. For the same molecule, the Sneezes in assay [2] (setting [10]) is 0 ×; in assay [2] (setting [11]), 2×; in assay [2] (setting [12]), 0 ×; in assay [2] (setting [13]) it was 0 ×. In assay [1] (after pretreatment), the “Reactions on exposure to cat allergen” value is reported as “mild reactions”. For the same molecule, in assay [1] (cat allergen diluted 1:100, after pretreatment), the “Symptoms on exposure to cat allergen” value is “not associated with any symptoms”. Further, the “Symptoms in response to the cat allergen compared to the reaction without pretreatment” value in assay [2] (1:1000, 1:100, 1:10 dilutions, three human patients) is listed as “decreased symptoms”. Also, the Itch in assay [2] (setting [5]), in assay [2] (setting [6]), in assay [2] (setting [7]), in assay [2] (setting [8]), in assay [2] (setting [9]) and in assay [2] (setting [10]) was 0 throughout. Also, the Itch in assay [2] (setting [12]) and in assay [2] (setting [13]) was 0 throughout. For the same molecule, the Congestion in assay [2] (setting [6]), in assay [2] (setting [7]), in assay [2] (setting [8]), in assay [2] (setting [9]), in assay [2] (setting [10]) and in assay [2] (setting [12]) was 0 each time. The Congestion in assay [2] (setting [13]) turned out to be 0. For the same molecule, the Drip in assay [2] (setting [6]), in assay [2] (setting [7]), in assay [2] (setting [8]), in assay [2] (setting [9]), in assay [2] (setting [10]) and in assay [2] (setting [11]) was 0 throughout. Also, the Drip in assay [2] (setting [12]) is 0.
For the molecule `O=C(CCCCC(=O)Nc1c(I)cc(I)c(C(=O)O)c1I)Nc1c(I)cc(I)c(C(=O)O)c1I` [iodipamide, Iodipamide], in assay [3], the “Reaction to histamine, dust allergen and grass allergen, pretreated versus untreated side” value is on record as “decreased reaction”.
